Measured values reported in BindingDB's records for PubMed 7891350 (Parke-Davis Pharmaceutical Research, 1995).

What was measured:
[1] = molecular target: T1, Type-2 angiotensin II receptor (Rattus norvegicus, UniProt P35351)
T1 sequence (P35351 whole entry): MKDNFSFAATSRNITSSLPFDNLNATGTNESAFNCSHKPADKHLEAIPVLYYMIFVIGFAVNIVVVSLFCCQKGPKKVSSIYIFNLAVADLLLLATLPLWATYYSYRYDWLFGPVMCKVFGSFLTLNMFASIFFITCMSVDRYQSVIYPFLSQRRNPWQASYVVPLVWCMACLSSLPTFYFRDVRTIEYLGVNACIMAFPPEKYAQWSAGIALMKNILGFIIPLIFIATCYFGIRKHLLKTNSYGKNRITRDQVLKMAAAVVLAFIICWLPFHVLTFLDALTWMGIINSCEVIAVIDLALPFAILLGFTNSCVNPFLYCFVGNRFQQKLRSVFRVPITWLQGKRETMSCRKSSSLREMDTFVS

[2] = molecular target: T2, Type-1 angiotensin II receptor A (Rattus norvegicus, UniProt P25095)
T2 sequence (P25095 whole entry): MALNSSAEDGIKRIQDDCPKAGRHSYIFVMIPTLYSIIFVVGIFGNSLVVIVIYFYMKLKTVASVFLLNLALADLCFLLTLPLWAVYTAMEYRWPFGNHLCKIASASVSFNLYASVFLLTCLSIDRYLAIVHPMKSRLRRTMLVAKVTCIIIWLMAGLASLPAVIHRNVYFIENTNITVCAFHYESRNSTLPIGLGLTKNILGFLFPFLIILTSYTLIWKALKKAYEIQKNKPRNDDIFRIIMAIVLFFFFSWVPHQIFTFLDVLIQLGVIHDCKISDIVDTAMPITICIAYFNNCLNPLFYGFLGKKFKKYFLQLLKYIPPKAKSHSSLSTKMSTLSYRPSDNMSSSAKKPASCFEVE

| Ki [1] | Ki [2] | Structure (SMILES) |
| --- | --- | --- |
| > 10 µM | – | CCCc1nc(-n2cccc2C(=O)C(F)(F)F)c(C(=O)O)n1Cc1ccc(-c2ccccc2-c2nn[nH]n2)cc1 |
| > 10 µM | – | CCCCc1ncc(/C=C(\Cc2cccs2)C(=O)O)n1Cc1ccc(C(=O)O)cc1 [(E)-3-[2-n-butyl-1-{(4-carboxyphenyl)methyl}-1H-imidazol-5-yl]-2-(2-thienyl)methyl-2-propenoic acid] |
| > 10 µM | 0.7 nM | CCc1nc2c(C)cc(C)nc2n1-c1ccc(-c2ccccc2-c2nnn[nH]2)cc1 [CAS_123856] |
